Reference: patent US5491167A, “Hexahydronaphthalene ester derivatives, their preparation and their therapeutic uses” (Sankyo Company, Limited, priority 1993, dated 1996)
Where a name gives a salt, the structure may show the parent alone.

Molecular target: T1, HMG-CoA reductase (Rattus norvegicus, UniProt P51639)
T1 construct: an enzyme solution (rat liver microsomal fraction); from tissue; host or cells: rat liver microsomal fraction
T1 sequence (P51639 1-887): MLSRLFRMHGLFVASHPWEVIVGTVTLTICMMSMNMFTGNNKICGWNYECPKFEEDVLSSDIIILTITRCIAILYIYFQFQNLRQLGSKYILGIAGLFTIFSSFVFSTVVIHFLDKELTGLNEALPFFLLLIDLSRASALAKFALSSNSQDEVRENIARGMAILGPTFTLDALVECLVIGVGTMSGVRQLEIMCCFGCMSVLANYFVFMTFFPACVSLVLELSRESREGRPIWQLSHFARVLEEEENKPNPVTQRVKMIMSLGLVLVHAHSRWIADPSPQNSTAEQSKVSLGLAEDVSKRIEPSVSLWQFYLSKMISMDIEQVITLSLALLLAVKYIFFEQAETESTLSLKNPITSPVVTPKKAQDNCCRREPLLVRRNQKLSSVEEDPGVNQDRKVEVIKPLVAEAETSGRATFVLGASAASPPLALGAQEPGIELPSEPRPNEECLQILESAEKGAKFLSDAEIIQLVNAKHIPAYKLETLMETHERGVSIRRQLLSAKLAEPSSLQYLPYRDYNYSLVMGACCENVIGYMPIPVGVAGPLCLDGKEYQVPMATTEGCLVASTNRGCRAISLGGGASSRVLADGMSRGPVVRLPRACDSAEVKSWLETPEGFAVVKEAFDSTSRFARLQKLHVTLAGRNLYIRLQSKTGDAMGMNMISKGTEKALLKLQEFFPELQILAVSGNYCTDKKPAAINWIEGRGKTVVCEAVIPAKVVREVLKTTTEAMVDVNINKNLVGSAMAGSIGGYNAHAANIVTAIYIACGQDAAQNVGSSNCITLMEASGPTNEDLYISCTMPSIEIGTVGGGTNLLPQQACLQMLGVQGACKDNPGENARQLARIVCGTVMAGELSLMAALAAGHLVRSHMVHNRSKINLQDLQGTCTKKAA
Experiment: Determination of HMG-CoA Reductase Inhibitory Activity
Assay type: biochemical
Conditions: rat liver microsomal fraction, 0.2 mM [14C]HMG-CoA, pH7.4, 15 minutes at 37° C
Procedure: The ability of the preferred test compounds to inhibit the activity of HMG-CoA reductase was determined by the method of Koga et al. [Eur. J. Biochem. 209, 315-319 (1992)], the improved procedure of Kuroda et al. [Biochem. Biophys, Acta, 485, 70-81 (1977)] which a modification of the method of Shapiro et al. [Anal. Biochem. 31, 383-390, (1969)].
A solution of 5 μl of the preferred test compound dissolved in distilled water was added to 45 μl of a reaction mixture containing 100 mM of a potassium phosphate buffer (pH7.4), 0.2 mM of [^14 C]HMG-CoA, 10 mM of ethylenediaminetetraacetic acid disodium salt, 10 mM of dithiothreitol, 10 mM of NADPH (=reduced nicotinamide adenine dinucleotide phosphate) and an enzyme solution (rat liver microsomal fraction). The concentrations are expressed in terms of the final 50 μl of assay mixture. The resulting mixture was incubated for 15 minutes at 37° C. The reaction was then terminated by adding 10 μl of 2N aqueous hydrochloric acid, to lactonize the [^14 C]mevalonate produced. After 15 minutes incubation, 1 ml of a 1:1 by volume aqueous suspension of Biorex-5 was added and the tubes were vigorously mixed using a Vortex mixer. […] The supernatant (400 μl) was mixed with 4.5 ml of Optiflow™ in scintillation vials and the activity of the [^14 C]mevalonolactone was determined by a liquid scintillation counter.

SMILES	IC50 [nM]
CCC(Oc1ccc(C)cc1)C(=O)O[C@H]1C[C@H](O)C=C2C=C[C@H](C)[C@H](CC[C@@H](O)C[C@@H](O)CC(=O)O)[C@H]21 (stereo partly drawn) [Example 3, Sodium Salt of (3R,5R)-3,5-dihydroxy-7-{(1S,2S,6S,8S,8aR)-1,2,6,7,8,8a-hexahydro-6-hydroxy-8-[(2RS)-2-(4-methylphenoxy)butyryloxy]-2-methyl-1-naphthyl}heptanoic acid]	30.6
CCC(Oc1c(C)cccc1C)C(=O)O[C@H]1C[C@H](O)C=C2C=C[C@H](C)[C@H](CC[C@@H](O)C[C@@H](O)CC(=O)O)[C@H]21 (stereo partly drawn) [Example 6, Sodium salt of (3R,5R)-3,5-dihydroxy-7-{(1S,2S,6S,8S,8aR)-1,2,6,7,8,8a-hexahydro-6-hydroxy-8-[(2RS)-2-(2,6-dimethylphenoxy)butyryloxy]-2-methyl-1-naphthyl}heptanoicacid]	33.5
